Results: the NIST ThermoML archive (doi:10.1021/je300557g)

Assay: xn = mol fraction of the nth substance listed
Settings: 101 kPa, Liquid; for mass density: Vibrating tube method

CCCC[n+]1cccc(C)c1.F[B-](F)(F)F [1-butyl-3-methylpyridinium tetrafluoroborate] + CO
Settings | kinematic viscosity, 293.15 K [m2/s] | kinematic viscosity, 303.15 K [m2/s] | kinematic viscosity, 313.15 K [m2/s] | kinematic viscosity, 323.15 K [m2/s] | mass density, 293.15 K [kg/m3] | mass density, 303.15 K [kg/m3] | mass density, 313.15 K [kg/m3] | mass density, 323.15 K [kg/m3]
x1 = 0.0481 | 1.03e-06 | 8.95e-07 | 7.88e-07 | 7e-07 | 876.92 | 868.11 | 858.9 | 850
x1 = 0.0975 | 1.45e-06 | 1.22e-06 | 1.06e-06 | 9.17e-07 | 937.91 | 929.46 | 920.91 | 912.45
x1 = 0.1973 | 2.72e-06 | 2.2e-06 | 1.88e-06 | 1.61e-06 | 1017.57 | 1009.42 | 1001.41 | 993.31
x1 = 0.3001 | 4.45e-06 | 3.44e-06 | 3.04e-06 | 2.54e-06 | 1067.85 | 1059.92 | 1052.02 | 1044.13
x1 = 0.4013 | 7.03e-06 | 5.64e-06 | 4.73e-06 | 3.95e-06 | 1101.07 | 1093.38 | 1085.61 | 1077.93
x1 = 0.4969 | 1.2e-05 | 9.04e-06 | 7.23e-06 | 5.68e-06 | 1123.81 | 1116.36 | 1108.79 | 1101.32
x1 = 0.5985 | 1.98e-05 | 1.45e-05 | 1.08e-05 | 8.38e-06 | 1142.18 | 1134.95 | 1127.63 | 1120.38
x1 = 0.6972 | 3.36e-05 | 2.31e-05 | 1.69e-05 | 1.27e-05 | 1156.2 | 1149.14 | 1142.07 | 1134.99
x1 = 0.7942 | 5.92e-05 | 3.53e-05 | 2.51e-05 | 1.76e-05 | 1167.41 | 1160.48 | 1153.59 | 1146.64
x1 = 0.8427 | 7.8e-05 | 4.59e-05 | 3.12e-05 | 2.13e-05 | 1172.3 | 1165.41 | 1158.59 | 1151.69
x1 = 0.8978 | 0.00011 | 6.28e-05 | 4.03e-05 | 2.67e-05 | 1177.37 | 1170.53 | 1163.75 | 1156.91
x1 = 0.9689 | 0.000171 | 9.3e-05 | 5.65e-05 | 3.61e-05 | 1183.27 | 1176.47 | 1169.72 | 1162.95
